This is an account of results in patent US20190060410A1, “Pharmaceutical Formulation Comprising GLP-1 Analogue and Preparation Method Thereof” (Hangzhou Jiuyuan Gene Engineering Co., Ltd., priority 2015, published 2019).

The conditions of series [1]: patients, combined with metformin (Nauck et al.); cited from earlier work.
For series [2] the following is noted: following subcutaneous injection; cited from earlier work.
Series [3] can be described thus: dissolution of liraglutide powder at different pHs. It is filed as physicochemical. On the procedure: Investigating the dissolution of liraglutide powder at different pHs
The appropriate amount of liraglutide powder was dissolved in the water for injection and the disodium hydrogen phosphate buffer at a different pH was added resulting in the dissolution shown in Table 1.

The conditions of series [4]: cited from earlier work.

Where only a bound is given, the exact number is not on record here.

Consider `CCC1=C(C)CN(C(=O)NCCc2ccc(S(=O)(=O)NC(=O)N[C@H]3CC[C@H](C)CC3)cc2)C1=O` [glimepiride], for which the incidence of hypoglycemia in series [1] is 17%.

“Arg^34, Lys^26 (N^ε-(γ-Glu (N^α-hexadecanoyl))) GLP-1 (7-37) [liraglutide]”: the plasma half-life in series [2] is 13 h. For the same molecule, the incidence of hypoglycemia result in series [1] was “less than 3%”. Further, the Dissolution entry in series [3] (6 mg/ml liraglutide in water for injection) is “insoluble”; in series [3] (6 mg/ml liraglutide, 10 mM disodium hydrogen phosphate buffer (pH 7.00)) it was “insoluble”; in series [3] (6 mg/ml liraglutide, 10 mM disodium hydrogen phosphate buffer (pH 7.50)), “colorless”; in series [3] (6 mg/ml liraglutide, 10 mM disodium hydrogen phosphate buffer (pH 8.00)), “colorless”; in series [3] (6 mg/ml liraglutide, 10 mM disodium hydrogen phosphate buffer (pH 8.15)) it was “colorless”; in series [3] (6 mg/ml liraglutide, 10 mM disodium hydrogen phosphate buffer (pH 8.50)) it was “colorless”. The Dissolution result in series [3] (6 mg/ml liraglutide, 10 mM disodium hydrogen phosphate buffer (pH 9.00)) is recorded as “colorless”. The “dissolution of liraglutide powder” value in series [3] (acidic and neutral conditions) is recorded as “didn't dissolve”; in series [3] (alkaline conditions), “readily dissolved”. Moreover, in series [4] (LEAD series clinical trials, patients), the “reduction of systolic blood pressure” value is 2.7-6.7 mmHg. The “patients who reported nausea” value in series [4] (LEAD-2 and LEAD-3 clinical trials) is given as under 10%.
